The values below come from patent US20050153381A1, “Immunocapture of mitochondrial protein complexes” (priority 2002, published 2005).

The test system of series [1] is human fibroblasts (cell strain MRC5). Format: cell-based. How it is done:
Normal, human fibroblasts (cell strain MRC5) were treated with DCC for five to seven population doublings. Complex IV subunit I in treated fibroblasts was detected immunocytochemically with mAb RAC#18-1D6E1A8 using standard protocols (Janes et al., J. Histochem. Cytochem., 52: 1011-1018, 2004; RAC#18-1D6E1A8 is commercially available from Molecular Probes, MitoScience, and Abcam). Subunit I levels were determined relative to mitochondrial mass measured by porin content (a mitochondrial outer membrane protein encoded by nuclear DNA). Porin content was also determined immunocytochemically using porin-specific mAb 31HL (available from Calbiochem). mtDNA depletion in DCC-treated fibroblasts was detected using real time PCR and FISH with a mtDNA probe in accordance with commonly used methods (see, Janes et al., J. Histochem. Cytochem., 52: 1011-1018, 2004).

In series [2] the target is human mtDNA polymerase γ (Homo sapiens, UniProt P54098). As to conditions: cited from earlier work.
human mtDNA polymerase γ, sequence (P54098 whole entry): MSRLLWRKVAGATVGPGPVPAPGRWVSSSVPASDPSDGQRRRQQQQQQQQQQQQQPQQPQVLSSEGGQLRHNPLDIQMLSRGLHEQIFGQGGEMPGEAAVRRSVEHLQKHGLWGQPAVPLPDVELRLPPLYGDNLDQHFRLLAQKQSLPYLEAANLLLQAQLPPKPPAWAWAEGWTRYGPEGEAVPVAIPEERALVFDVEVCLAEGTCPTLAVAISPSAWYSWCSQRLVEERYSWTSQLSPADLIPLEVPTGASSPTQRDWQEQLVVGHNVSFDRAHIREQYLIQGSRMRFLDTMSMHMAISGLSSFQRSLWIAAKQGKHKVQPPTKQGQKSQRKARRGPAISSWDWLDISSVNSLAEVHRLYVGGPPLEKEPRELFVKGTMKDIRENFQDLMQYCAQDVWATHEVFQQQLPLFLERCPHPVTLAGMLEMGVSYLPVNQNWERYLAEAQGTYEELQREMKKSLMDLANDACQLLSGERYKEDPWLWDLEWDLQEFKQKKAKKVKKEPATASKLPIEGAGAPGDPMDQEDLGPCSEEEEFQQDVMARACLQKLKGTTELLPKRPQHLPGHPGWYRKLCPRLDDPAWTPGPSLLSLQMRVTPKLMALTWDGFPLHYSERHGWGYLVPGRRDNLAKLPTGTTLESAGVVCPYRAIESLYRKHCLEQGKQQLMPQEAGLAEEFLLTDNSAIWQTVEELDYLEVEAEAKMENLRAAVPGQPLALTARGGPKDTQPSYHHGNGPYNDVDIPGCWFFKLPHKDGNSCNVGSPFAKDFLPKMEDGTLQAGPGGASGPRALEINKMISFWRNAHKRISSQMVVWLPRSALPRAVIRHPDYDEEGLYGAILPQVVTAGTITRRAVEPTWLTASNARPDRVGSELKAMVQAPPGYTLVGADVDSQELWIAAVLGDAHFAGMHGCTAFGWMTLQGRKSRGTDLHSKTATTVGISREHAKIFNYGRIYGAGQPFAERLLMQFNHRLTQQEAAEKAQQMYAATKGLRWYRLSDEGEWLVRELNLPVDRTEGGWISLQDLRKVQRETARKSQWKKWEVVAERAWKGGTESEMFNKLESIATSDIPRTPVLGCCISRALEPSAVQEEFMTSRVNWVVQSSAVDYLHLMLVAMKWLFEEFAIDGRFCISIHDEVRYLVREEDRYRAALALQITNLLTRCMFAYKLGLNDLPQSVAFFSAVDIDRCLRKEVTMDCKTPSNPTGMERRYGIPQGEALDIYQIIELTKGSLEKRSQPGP
The subject of series [3] is Complex I (NADH:UQ1 oxidoreductase). As to the kind of experiment: Immunocaptured Complex I NADH:UQ1 oxidoreductase microplate activity assay. The note with it: 16 μg heart mitochondria per well; 240 ng rotenone (FIG. 27). The format is biochemical. How it is done:
In brief, 1 μg mAb RAC#24-20D1AB7 was added per well (50 μl of a 20 μg/ml solution in PBS) on a protein G-coated 96-well plate, incubated overnight at 4° C., then washed three times with PBS. Then, heart mitochondria solubilized in lauryl maltoside as previously described and diluted in PBS were added at 16 μg (♦), 8 μg (▪), 4 μg (▴) and 0 μg (●) per well in 50 μl aliquots and incubated at room temperature for 2 hours. The wells then were washed three times with 200 μl/well of 20 mM Tris/HCl, pH 7.5, 50 mM KCl, 0.015% lauryl maltoside. A phospholipid solution (see below) was added at 40 μl/well, incubated for 45 minutes at 4° C. and then 200 μl of assay solution (25 mM KPi pH 7.2, 5 mM MgCl2, 2 mM KCN, 260 μM NADH, and 200 μM UQ1) was added directly to the phospholipid solution. The oxidation of NADH was measured by following the decrease of the absorbance at 340 nm. Absorbance changes were measured at 340 nm with a Victor2 from Perkin Elmer for two hours.
The phospholipid stock solution was made by mixing 0.76 ml of 10 mg/ml egg-yolk phosphatidyl choline, 0.38 ml of 5 mg/ml egg-yolk phosphatidylethanolamine, and 0.1 ml of 5 mg/ml cardiolipin in round bottom flask. This mixture was dried under N2, resuspended in 4.25 ml buffer I (20 mM Tris/HCl pH 7.5, 50 mM KCl), and vortexed. […]

The target of series [4] is T1, Complex IV (cytochrome c oxidase) (Bos taurus, UniProt P00396).
T1 construct: from tissue; host or cells: bovine heart mitochondria
As to the kind of experiment: Complex IV (cytochrome c oxidase) activity, ferrocytochrome c oxidation at 550 nm. The format is biochemical, bovine. As to conditions: mitochondrial membranes exposed to up to 1600 μM; membranes and isolated enzyme (FIG. 24A). The protocol:
4. Fe^3Fe^2+ Catalyzed Oxidation of Mitochondria. Mitochondria at 5 mg/mL in 25 mM KH2PO4 pH 7.2, 5 mM MgCl2 were incubated for 0, 0.5, 1, 2, or 4 hours with 1 mM FeCl3/25 mM sodium ascorbate. Incubation could not be performed for less than 0.5 h because iron could only be removed by rapid dialysis, which was performed for 30 min against 25 mM potassium phosphate pH 7.2, 5 mM MgCl2 using 12000 Da MWCO dialysis membrane (Spectrapor). After oxidation, mitochondrial membranes were subjected to the Complex IV activity assay described below. The Complex IV enzyme was then isolated by the immunocapture extraction method above.
5. Peroxynitrite Catalyzed Oxidation of Mitochondria. […] Following this oxidative treatment, Complex IV activity was measured before and after Complex IV immunocapture.
6. […] Potassium cyanide-sensitive Complex IV activity was measured in bovine heart mitochondria or with immunopurified isolated enzyme. […] Reduced bovine heart cytochrome c was purified over a Sephadex G-15 (Pharmacia) column equilibrated with assay buffer, collected in 1 mL fractions, and the concentration measured at 550 nm in a Beckman DU7. The oxidation of ferrocytochrome c was followed at 550 nm in a 1 mL reaction vessel in the DU7 or in a 96 well plate (Corning) using a Victor2 1460 multi-plate reader (Perkin-Elmer) with a narrow band pass 550 nm filter. […]

Series [5] deals with Complex IV (Bos taurus, UniProt P00396).
Protocol: (§1) Mitochondria (human heart, human fibroblast or bovine heart) were solubilized at 5 mg/ml mitochondrial protein, 1% wt/vol lauryl maltoside, 100 mM NaCl, 25 mM HEPES pH 7.5, and the protease inhibitors pepstatin (0.5 μg/ml), leupeptin (0.5 μg/ml) and PMSF (1 mM). The samples were incubated at 4° C. for 30 minutes and the insoluble material removed by centrifugation at 16,000×g for 20 minutes. Solubilized mitochondria were diluted to the desired concentration in 150 mM NaCl, 50 mM Tris-HCl, pH 7.5 containing 2.5% bovine serum albumin as a blocking and stabilization agent.
(§2) After the entire sample wicked up into the nitrocellulose (approximately 15 minutes), the stick was transferred to a second well containing 50 μl of wash buffer (150 mM NaCl, 50 mM Tris-HCl, pH 7.5), which was allowed to wick up the stick (approximately 15 minutes). The absorbent pad was then removed and the entire dipstick incubated in a tube containing 3 ml wash buffer for approximately 15 minutes. The washed dipstick (with the immunocaptured OXPHOS complex of interest) was then transferred to the appropriate enzyme reaction buffer to reveal enzyme activity as described below.
Complex IV. The Complex IV reaction buffer solution contained 0.5 mg/ml 3,3′ diaminobenzidine-tetrachloride (DAB) and 0.1 mM reduced cytochrome c in PBS, pH 7.4. […]
Series [6] concerns the target T2, recombinant human IF1, His-tagged (UniProt Q9UII2).
T2 sequence: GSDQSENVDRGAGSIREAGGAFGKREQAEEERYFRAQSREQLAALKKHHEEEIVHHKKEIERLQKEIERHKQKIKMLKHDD

Series [7] deals with T3, C-V-IP (inhibitor protein IF1), human (UniProt Q9UII2).
T3 sequence: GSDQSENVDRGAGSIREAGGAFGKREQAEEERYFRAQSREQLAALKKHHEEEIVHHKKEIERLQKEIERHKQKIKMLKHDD

Series [8] addresses Complex I (Homo sapiens, UniProt P49821+P56556). The note with it: normal fibroblast Complex I; DPI in reaction buffer (FIG. 28).
Protocol: as §1, §2
Complex I. The Complex I reaction buffer solution contained 0.1 mg/ml NADH, 2.5 mg/ml NBT in 2 mM Tris-HCl, pH 7.4. […]
Series [9] has as its system human mitochondrial F1/F0 ATPase (Complex V). Kind of series: ATPase activity of immunocaptured F1/F0 ATPase, 96-well. Format: biochemical. The protocol:
Solubilization. Samples were thawed and placed in 25 mM HEPES pH 7.5 (to dissociate F1F0/IF1 interactions) or 10 mM […] (Anatrace) pH 6.5 (to retain F1F0/IF1 interactions), containing 0.4% (w/v) […], and the protease inhibitors leupeptin (0.5 μg/ml), pepstatin (0.5 μg/ml) and PMSF (1 mM). Mitochondria were solubilized at 5 mg/ml and whole cells were solubilized at 2×10^7 cells/ml. Samples were mixed well and then kept on ice for 30 minutes with occasional agitation. Insoluble material was then removed by centrifugation at 16,000×g for 20 minutes at 4° C.
Immunocapture. Assays were run in 96-well plates (Falcon Probind™) using 100 μl/well. […] To control for non-specific adsorption of ATPase, a non-specific mouse monoclonal antibody was used as a null capture mAb. Wells were then loaded with solubilized test samples diluted in TBS with 2.5% BSA, incubated for 2 hours at room temperature and then washed 4 times with TBS.
ATPase activity. ATPase reaction buffer (25 mM HEPES pH 7.5 or 10 mM MOPS pH 6.5, with 25 mM KCl, 5 mM MgCl2, 5 mM KCN and 2 mM ATP) was added at 100 μl/well and incubated for 3 hours at 37° C. The reaction was stopped and free Pi generated by ATP hydrolysis was detected essentially as described by Walker et al. (Meth. Enzymol., 260: 163-190, 1995) by addition of 0.5% ammonium molybendate in 0.7 M H2SO4 (42 μl/well) followed by 10% ascorbic acid (4 μl/well). After incubation for 30 minutes at room temperature to allow color development, absorbance was measured at 690 nm.
IF1 Stripping Conditions. IF1 was dissociated from previously immunocaptured IF1/F1F0 complexes by exposure to IF1 stripping buffer (30 mM Tris-sulfate pH 8, 250 mM KCl, 2 mM EDTA, 75 mM sucrose) for 30 minutes at 37° C. (Van Raaij et al., Biochem. 35: 15618-15625, 1996). The wells were then washed with either a pH 7.5 wash buffer (TBS) or a pH 6.5 wash buffer (10 mM MOPS pH 6.5, 150 mM NaCl and 1 mM MgCl2), and ATPase activity measured at either pH 7.5 or pH 6.5 as described above.
IF1 Addition Conditions. Recombinant human IF1 was obtained by PCR-based amplification of the appropriate gene from a human heart CDNA library (Clontech), cloning into pET15b (Novagen), transformation of E. coli and overexpression and purification of the His-tagged protein on a Ni column by standard protocols (Novagen). Isolated protein was diluted in pH 6.5 wash buffer (as described above) containing 1 mM ATP and incubated with previously immunocaptured F1F0. The wells were then washed with pH 6.5 wash buffer and ATPase activity measured at pH 6.5 as described above.

Complex I, sequence (P49821 21-464): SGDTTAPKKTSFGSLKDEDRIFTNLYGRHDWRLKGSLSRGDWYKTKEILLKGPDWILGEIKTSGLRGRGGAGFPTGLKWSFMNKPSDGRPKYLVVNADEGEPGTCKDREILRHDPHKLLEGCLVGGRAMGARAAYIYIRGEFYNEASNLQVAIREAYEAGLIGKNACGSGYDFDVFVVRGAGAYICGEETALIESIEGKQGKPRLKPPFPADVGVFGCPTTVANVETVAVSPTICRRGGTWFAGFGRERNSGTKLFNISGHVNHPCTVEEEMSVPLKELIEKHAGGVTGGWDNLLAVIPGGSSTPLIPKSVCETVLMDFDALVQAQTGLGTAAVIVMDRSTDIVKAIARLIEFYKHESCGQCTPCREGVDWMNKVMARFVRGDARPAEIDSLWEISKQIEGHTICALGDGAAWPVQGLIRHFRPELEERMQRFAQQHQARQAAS
Complex I, sequence (P56556 whole entry): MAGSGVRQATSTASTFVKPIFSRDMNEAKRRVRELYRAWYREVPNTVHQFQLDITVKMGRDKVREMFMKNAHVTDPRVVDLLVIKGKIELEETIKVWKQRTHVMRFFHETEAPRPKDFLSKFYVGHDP

For `Nc1ccn([C@H]2CC[C@@H](CO)O2)c(=O)n1` [DDC, zalcitabine], in series [1], the “depletion of mtDNA from fibroblasts” value was “within three population doublings”. For the same molecule, the “inhibition of isolated human mtDNA polymerase γ (hierarchy DDC≧DDI≧D4T≧3TC≧AZT≧ABV)” value in series [2] is “inhibited most dramatically”.
Turning to `C=C(C)[C@H]1Cc2c(ccc3c2O[C@@H]2COc4cc(OC)c(OC)cc4[C@@H]2C3=O)O1` [rotenone], the “fraction of immunocaptured NADH:UQ1 oxidoreductase activity sensitive to inhibition” value in series [3] is listed as “approximately 30%”.
`O=NOO` [peroxynitrite]: the “inhibition of Complex IV” value in series [4] was about 50%.
`[N-]=[N+]=[N-]` [azide]: the “inhibition of oxidase activity in the Complex IV capture zone” value in series [5] is on record as “near complete inhibition”.
As for Complex V (F1/F0 ATPase), human, the ATP hydrolysis activity entry in [6] was “addition of recombinant IF1, which reduced the rate of ATP hydrolysis to that before stripping”; in series [7], “the enzyme could be greatly activated (>10-fold) by conditions that strip the IF1 from the protein”.
As to `c1ccc2c(c1)[I+]c1ccccc1-2` [DPI, diphenyleneiodonium], the “effect on Complex I activity dipstick signal” value in series [8] is given as “reduced signal”.

B1: recombinant IF1: His-tagged recombinant human inhibitor protein of F1/F0 ATPase expressed in E. coli (protein)
chain: GSDQSENVDRGAGSIREAGGAFGKREQAEEERYFRAQSREQLAALKKHHEEEIVHHKKEIERLQKEIERHKQKIKMLKHDD
modifications: left off: small tags and cut ends
With B1, in series [9] (5 μg/ml (FIG. 9)), the “effect on stripped F1/F0 ATPase from GM00028 and MRC5 cells” value was “inhibited”. Also, the “effect on ATP hydrolysis of IF1-stripped immunocaptured F1/F0 ATPase” value in series [9] (human heart mitochondria, assayed at pH 6.5 (FIG. 6)) is reported as “reduced the rate of ATP hydrolysis to that before stripping”.
